Columns and labels:
[1] = system: encapsulated S. pneumoniae; test: Rabbit S. pneumoniae keratitis, slit lamp examination (SLE) score; settings: topical 1% cholesterol in 20% glycerol, 20 and 24 hours post-infection
[2] = system: S. pneumoniae strains Avery's, R6, and TIGR4; test: In vitro incubation of log-phase S. pneumoniae with cholesterol (optical density, plating); type: cell-based, Streptococcus pneumoniae; settings: 3 hours
Protocol: To determine if cholesterol is bactericidal, log-phase S. pneumoniae were incubated with cholesterol. Three S. pneumoniae strains, Avery's, R6, and TIGR4, were diluted from overnight cultures and grown to log phase (A600=0.3). These bacteria were then incubated with 1% cholesterol in 20% glycerol, 20% glycerol alone, or PBS. The optical density of each strain was determined once per hour for 3 hours, and bacterial loads were determined by plating dilutions of the bacteria onto chocolate agar. […] While cholesterol prevented growth in vitro (outside the cornea), cholesterol had no effect on bacterial growth in the cornea. (See above). Topical application of cholesterol could be used to decrease the numbers of S. pneumoniae on the outside surface of the cornea, and inhibit bacterial infiltration of the corneal surface.

[3] = Test whether cholesterol independently causes inflammation in rabbit corneas (topical drops or intrastromal injection); type: in vivo; settings: one cornea, examined up to 48 hours post-injection
Protocol: The applications were 30 minutes apart for the first hour, and the remaining applications were 1 hour apart. The corneas were examined periodically for several days. […] The possible effect of cholesterol injected into the corneal stroma was also examined. […] The corneas were examined every 2 hours for the first 8 hours, and then at 24, 30, and 48 hours post-injection.

Staphylococcus aureus = test: Rabbit Staphylococcus aureus keratitis treated with cholesterol; type: in vivo; settings: cholesterol 1% in 20% glycerol
[4] = system: encapsulated S. pneumoniae; test: Bacterial load in infected rabbit corneas; type: in vivo, Streptococcus pneumoniae; settings: topical application
Protocol: Sacrifice of the rabbits occurred immediately following the last SLE time (48 hours post-infection) to avoid unnecessary pain. Corneas were harvested for bacterial quantification or for histopathologic analysis. […] Bacterial loads were determined for control corneas (treated with 20% glycerol only) and corneas treated with the topical cholesterol (1% in 20% glycerol). The bacterial load in the control corneas ranged from 2.48 to 6.60 log colony-forming units, while in the treated corneas the load was 3.68 to 6.59 log colony-forming units.

alpha-toxin = alpha-toxin (Staphylococcus aureus, UniProt P09616); settings: in vivo
Chain of alpha-toxin (P09616 27-319 limits assumed): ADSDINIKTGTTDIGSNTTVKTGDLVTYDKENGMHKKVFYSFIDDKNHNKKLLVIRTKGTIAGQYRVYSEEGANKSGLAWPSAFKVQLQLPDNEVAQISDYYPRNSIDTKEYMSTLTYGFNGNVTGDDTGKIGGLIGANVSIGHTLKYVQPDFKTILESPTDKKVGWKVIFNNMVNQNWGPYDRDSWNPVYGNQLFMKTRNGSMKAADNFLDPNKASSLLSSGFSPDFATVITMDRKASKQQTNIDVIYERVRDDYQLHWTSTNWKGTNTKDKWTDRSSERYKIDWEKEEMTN

In the case of `CC(C)CCC[C@@H](C)[C@H]1CC[C@H]2[C@@H]3CC=C4C[C@@H](O)CC[C@]4(C)[C@H]3CC[C@]12C` [cholesterol], the “corneal severity (SLE), treated versus untreated corneas” value [1] is reported as “essentially the same”, the “effect on bacterial growth in vitro” value ([2]; strain Avery's, 1% cholesterol in 20% glycerol) is reported as “prevented the growth” and the “effect on bacterial growth in vitro” value ([2]; strain R6, 1% cholesterol in 20% glycerol) is reported as “prevented the growth”. The “inflammation or adverse effect after injection into corneal stroma” value ([3]; […]) was “No inflammation or adverse effect was observed”, the “inflammation or adverse effect after injection into corneal stroma” value ([3]; injection of 0.5% cholesterol in 10% glycerol) was “No inflammation or adverse effect was observed” and the “inhibition of damaging effects in S. aureus-infected corneas” value (Staphylococcus aureus) was “ineffective”. For the same compound, the “bactericidal effect on bacteria once inside the cornea” value [4] was “does not have a bactericidal effect” and the “reduction of pathology associated with alpha-toxin” value (alpha-toxin) was “ineffective”.
